Measurements as given in US10757941B2, “Microbiocidal oxadiazole derivatives” (SYNGENTA PARTICIPATIONS AG, priority 2016, dated 2020).

Key:
Phakopsora pachyrhizi = assay: Fungicidal activity against Phakopsora pachyrhizi / soybean / leaf disc preventative (Asian soybean rust); assay type: in vivo; conditions: foliar, 200 ppm in the applied formulation, soybean leaf disks, preventative (inoculated one day after application), assessed 12 to 14 days after application, compared to untreated, read-out: disease control
How it was run: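 Preventative test: soybean leaf discs on water agar sprayed with compound diluted in water, inoculated with spore suspension on lower surface one day later. Incubated 24-36 h dark at 20° C., 75% rh, then 12 h light/day; percent disease control versus untreated assessed 12 to 14 days after application.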

Uromyces viciae-fabael = assay: Fungicidal activity against Uromyces viciae-fabae / field bean / leaf disc preventative (faba-bean rust); assay type: in vivo; conditions: foliar, 288 h, 100 ppm in the applied formulation, field bean leaf discs, preventative (inoculated two hours after application), assessed 12 days after application, compared to untreated, read-out: disease control
How it was run: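 Field bean leaf discs on water agar treated with compound in acetone plus spreader, then inoculated 2 h later by spraying U. viciae-fabae spores on the lower surface. Incubation at 22° C, 18 h day, 70% RH; percent disease control versus untreated scored 12 days after application.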

[1] = test system: Glomerella lagenarium (Colletotrichum lagenarium); assay: Fungicidal activity against Glomerella lagenarium (Colletotrichum lagenarium) liquid culture / cucumber / preventative (anthracnose); assay type: cell-based; conditions: Colletotrichum orbiculare; 20 ppm in the applied formulation; liquid culture in PDB, 24° C.; inhibition of growth measured photometrically 3 to 4 days after application; compared to untreated; read-out: disease control
How it was run: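 Conidia of C. lagenarium from cryogenic storage mixed into potato dextrose broth and added to test compound (DMSO solution) in microtiter plates; incubated at 24° C. Growth inhibition read photometrically 3 to 4 days after application, as percent activity versus untreated check.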

[2] = test system: Puccinia recondita f. Sp. Tritici; assay: Fungicidal activity against Puccinia recondita f. sp. tritici / wheat / leaf disc curative (brown rust); assay type: in vivo; conditions: foliar, 200 ppm in the applied formulation, wheat leaf segments cv. Kanzler, curative (applied 1 day after inoculation), assessed 6 to 8 days after application, compared to untreated, read-out: disease control
Procedure: Leaf disks or leaf segments of various plant species are cut from plants grown in a greenhouse. The cut leaf disks or segments are placed in multiwell plates (24-well format) onto water agar. The leaf disks are sprayed with a test solution before (preventative) or after (curative) inoculation. Compounds to be tested are prepared as DMSO solutions (max. 10 mg/ml) which are diluted to the appropriate concentration with 0.025% Tween20 just before spraying. The inoculated leaf disks or segments are incubated under defined conditions (temperature, relative humidity, light, etc.) according to the respective test system. A single evaluation of disease level is carried out 3 to 14 days after inoculation, depending on the pathosystem. Percent disease control relative to the untreated check leaf disks or segments is then calculated. Example 2: Fungicidal Activity Against Puccinia recondita f. Sp. Tritici/Wheat/Leaf Disc Curative (Brown Rust) Wheat leaf segments cv. Kanzler are placed on agar in multiwell plates (24-well format). The leaf segments are then inoculated with a spore suspension of the fungus. Plates were stored in darkness at 19° C. and 75% relative humidity. The formulated test compound diluted in water was applied 1 day after inoculation. The leaf segments were incubated at 19° C. and 75% relative humidity under a light regime of 12 hours light/12 hours darkness in a climate cabinet and the activity of a compound was assessed as percent disease control compared to untreated when an appropriate level of disease damage appears in untreated check leaf segments (6 to 8 days after application). The following compounds at 200 ppm in the applied formulation give at least 80% disease control in this test when compared to untreated control leaf disks under the same conditions, which show extensive disease development.

[3] = test system: Puccinia recondita f. Sp. Tritici; assay: Fungicidal activity against Puccinia recondita f. sp. tritici / wheat / leaf disc preventative (brown rust); assay type: in vivo; conditions: foliar, 200 ppm in the applied formulation, wheat leaf segments cv. Kanzler, preventative (inoculated 1 day after application), assessed 7 to 9 days after application, compared to untreated, read-out: disease control
How it was run: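 Wheat cv. Kanzler leaf segments on agar sprayed with formulated compound diluted in water; spore inoculation 1 day after application. Incubated at 19° C., 75% rh, 12 h light/12 h dark; percent disease control versus untreated scored 7 to 9 days after application.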

O=C(NC1(C2CC2)CC1)c1ccc(-c2noc(C(F)(F)F)n2)c(F)c1 [Compound 1.27, N-(1-cyclopropyl-cyclopropyl)-3-fluoro-4-[5-(trifluoromethyl)-1,2,4-oxadiazol-3-yl]benzamide]
≥ 80%: pest or weed control at 200 ppm (Phakopsora pachyrhizi) | pest or weed control at 100 ppm (Uromyces viciae-fabael) | inhibition of growth at 20 ppm [1] | pest or weed control at 200 ppm [2] | pest or weed control at 200 ppm [3]

CC(NC(=O)c1ccc(-c2noc(C(F)(F)F)n2)c(F)c1)C1CC1 (stereo not drawn) [Compound 1.25, N-(1-cyclopropylethyl)-3-fluoro-4-[5-(trifluoromethyl)-1,2,4-oxadiazol-3-yl]benzamide]
≥ 80%: pest or weed control at 200 ppm (Phakopsora pachyrhizi) | pest or weed control at 100 ppm (Uromyces viciae-fabael) | inhibition of growth at 20 ppm [1] | pest or weed control at 200 ppm [2] | pest or weed control at 200 ppm [3]

O=C(NC1CCC1)c1ccc(-c2noc(C(F)(F)F)n2)c(F)c1 [Compound 1.39, N-cyclobutyl-3-fluoro-4-[5-(trifluoromethyl)-1,2,4-oxadiazol-3-yl]benzamide]
≥ 80%: pest or weed control at 200 ppm (Phakopsora pachyrhizi) | pest or weed control at 100 ppm (Uromyces viciae-fabael) | inhibition of growth at 20 ppm [1] | pest or weed control at 200 ppm [2] | pest or weed control at 200 ppm [3]

O=C(NCc1ccco1)c1ccc(-c2noc(C(F)(F)F)n2)c(F)c1 [Compound 1.31, 3-fluoro-N-(2-furylmethyl)-4-[5-(trifluoromethyl)-1,2,4-oxadiazol-3-yl]benzamide]
≥ 80%: pest or weed control at 200 ppm (Phakopsora pachyrhizi) | pest or weed control at 100 ppm (Uromyces viciae-fabael) | inhibition of growth at 20 ppm [1] | pest or weed control at 200 ppm [2] | pest or weed control at 200 ppm [3]

COC(CN(C)C(=O)c1ccc(-c2noc(C(F)(F)F)n2)c(F)c1)OC [Compound 1.36, N-(2,2-dimethoxyethyl)-3-fluoro-N-methyl-4-[5-(trifluoromethyl)-1,2,4-oxadiazol-3-yl]benzamide]
≥ 80%: pest or weed control at 200 ppm (Phakopsora pachyrhizi) | pest or weed control at 100 ppm (Uromyces viciae-fabael) | inhibition of growth at 20 ppm [1] | pest or weed control at 200 ppm [2] | pest or weed control at 200 ppm [3]

Cc1ccc(CNC(=O)c2ccc(-c3noc(C(F)(F)F)n3)c(F)c2)o1 [Compound 1.28, 3-fluoro-N-[(5-methyl-2-furyl)methyl]-4-[5-(trifluoromethyl)-1,2,4-oxadiazol-3-yl]benzamide]
≥ 80%: pest or weed control at 200 ppm (Phakopsora pachyrhizi) | pest or weed control at 100 ppm (Uromyces viciae-fabael) | inhibition of growth at 20 ppm [1] | pest or weed control at 200 ppm [2] | pest or weed control at 200 ppm [3]
